Like-named read-outs stand apart in the source and are kept apart here.
Assays:
[1] = tested on: Ba/F3-BCR-FGFR1 cells; experiment: Inhibition of proliferation activity of Ba/F3-BCR-FGFR1 cells (CellTiter-Glo); type: cell-based; conditions: read-out: IC50 (nM) Ba/F3-BCR-FGFR1
Experimental: The present experiment used CellTiter-Glo® Luminescent Cell Viability Assay (Promega: G7573) kit, which was a homogeneous cell viability detection method and determined the cell viability of cultured cells by quantifying ATP. • ① Ba/F3-BCR-FGFR1 or Ba/F3-FGFR3-BAIAP2L1 cells were cultured in 1640 complete medium (Gibco: 11879020) (10% FBS (Gibco: 10091-148)+1% Pen Strep (Gibco: 15140122)) under the condition of 37°C and 5% CO2. • (2) The cells in logarithmic growth phase were harvested and counted using a […]. The trypan blue exclusion method was used to detect cell viability to ensure the cell viability was above 90%. • ③ The cell density was adjusted using 1640 complete medium, and then, the cells were seeded into a 96-well cell culture plate at 90 µL/well with a total of 2000 cells. • ④ A 10-fold drug solution was prepared starting from a maximum drug concentration of 10 µM and 4-fold serially diluted into10 concentrations. Then, 10 µL of each of the serially diluted compounds was transferred to the corresponding experimental wells of a 96-well cell plate, with two replicates for each drug concentration. • ⑤ The 96-well plate with the cells that had been treated with the drugs was placed under the condition of 37°C and 5% CO2 to be further cultured for 72 hours, and then analyzed by CTG. • ⑥ The CTG reagent was melted and the cell plate was equilibrated to room temperature for 30 minutes. • ⑦ 50 µL of the CTG solution was added to each well. • ⑧ The cell plate was shaken on an orbital shaker for 5 minutes to lyse the cells. • ⑨ The cell plate was placed at room temperature for 20 minutes to stabilize the luminescence signal. The luminescence values were read to collect the data. • ⑩ The data were analyzed using XLFit excel plugin version 5.5.0.5, and fitted with non-linear S-curve regression to obtain the dose-response curves and thus calculate the IC50 values. Y = Bottom + (Top-Bottom)/((1+(IC50/X))^(∧) HillSlope [formula]
"Top" refers to the maximum response, "Bottom" refers to the minimum response, and "HillSlope" refers to the slope of the curve.
"Max" represents the average value of the cell control+DMSO, and "Min" represents the average value of the medium control+DMSO.

[2] = target: T1, FGFR3 (Homo sapiens, UniProt P22607); experiment: FGFR3 kinase activity inhibition assay (LanthaScreen TR-FRET); type: biochemical; conditions: for Selectivity (X) FGFR1/FGFR3: ratio of IC50 FGFR1/FGFR3, selectivity towards FGFR3; for Selectivity (X) FGFR2/FGFR3: ratio of IC50 FGFR2/FGFR3, selectivity towards FGFR3; for Selectivity (X) FGFR4/FGFR3: ratio of IC50 FGFR4/FGFR3, selectivity towards FGFR3
T1 construct: FGFR3's cytoplasmic domain [436-806 (terminal) amino acids]; purchased Carna 08-135
Outline: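 Read-out is TR-FRET, with the 520 nm/495 nm emission ratio normalised to DMSO (max) and enzyme-free (min) controls. Enzyme was the FGFR3 cytoplasmic domain, residues 436-806. EDTA (10 mM) stopped the reaction, followed by 60 min at 22 °C before reading.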

[3] = target: T2, FGFR1 (Homo sapiens, UniProt P11362); experiment: FGFR1 kinase activity inhibition assay (LanthaScreen TR-FRET); type: biochemical
T2 construct: cytoplasmic domain [398-822 (terminal) amino acids]; purchased Carna 08-133
Outline: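 Emission ratio 520 nm/495 nm by TR-FRET after stopping reaction with 10 mM EDTA and 60 min incubation at 22°C. Inhibition normalized between no-enzyme (min) and DMSO (max) controls, then fitted to a four-parameter curve (Top, Bottom, HillSlope).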

[4] = Ba/F3-BCR-FGFR1 cells, 72 hours, CTG
[5] = FGFR3 kinase, TR-FRET, read-out: IC50 (nM) FGFR3
[6] = FGFR1 kinase, TR-FRET, read-out: IC50 (nM) FGFR1

T1 sequence (P22607 436-806): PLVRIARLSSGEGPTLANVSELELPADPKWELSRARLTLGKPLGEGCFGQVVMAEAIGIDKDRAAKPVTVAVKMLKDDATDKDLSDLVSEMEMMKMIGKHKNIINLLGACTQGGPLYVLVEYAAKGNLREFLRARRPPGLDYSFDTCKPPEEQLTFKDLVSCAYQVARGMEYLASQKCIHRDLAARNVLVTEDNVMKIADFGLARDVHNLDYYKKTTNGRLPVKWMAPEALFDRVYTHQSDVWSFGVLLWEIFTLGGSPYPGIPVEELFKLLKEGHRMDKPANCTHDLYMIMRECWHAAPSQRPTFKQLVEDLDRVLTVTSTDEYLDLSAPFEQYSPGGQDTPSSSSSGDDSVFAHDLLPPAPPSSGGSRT
T2 sequence (P11362 398-822): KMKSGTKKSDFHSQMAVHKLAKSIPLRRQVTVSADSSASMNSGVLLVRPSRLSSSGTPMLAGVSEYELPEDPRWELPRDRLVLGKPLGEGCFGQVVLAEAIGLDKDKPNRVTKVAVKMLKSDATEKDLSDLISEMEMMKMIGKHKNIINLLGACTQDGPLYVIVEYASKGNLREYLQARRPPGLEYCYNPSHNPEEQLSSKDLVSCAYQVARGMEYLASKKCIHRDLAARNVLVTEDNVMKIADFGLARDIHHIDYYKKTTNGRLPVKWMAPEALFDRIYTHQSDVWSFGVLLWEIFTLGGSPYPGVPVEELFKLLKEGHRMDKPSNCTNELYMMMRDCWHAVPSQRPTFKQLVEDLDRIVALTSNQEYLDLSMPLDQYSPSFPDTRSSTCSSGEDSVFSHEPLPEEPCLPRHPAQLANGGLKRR

| SMILES | IC50 ([1]; 72 h) [nM] | IC50 [1, 4] [nM] | IC50 [2, 5] [nM] | Selectivity (X) FGFR1/FGFR3 [2] | Selectivity (X) FGFR2/FGFR3 [2] | Selectivity (X) FGFR4/FGFR3 [2] | IC50 [3, 6] [nM] | IC50 [2] [nM] | IC50 [3] [nM] |
| --- | --- | --- | --- | --- | --- | --- | --- | --- | --- |
| C[C@@H](Oc1ccc2[nH]nc(-c3ccc(S(C)(=N)=O)nc3)c2c1)c1c(Cl)cncc1Cl (stereo partly drawn) [Comparative Example 85, (5-(5-((R)-1-(3,5-dichloropyridin-4-yl)ethoxy)-1H-indazol-3-yl)pyridin-2-yl)(imino)(methyl)-sulfanone, reference compound] | 615 |  |  |  |  |  |  |  |  |
| C[C@@H](Oc1cc(F)c2[nH]nc(-c3cnn(CCN4CCOCC4)c3)c2c1)c1c(Cl)cncc1Cl [Example 12, (R)-4-(2-(4-(5-(1-(3,5-dichloropyridin-4-yl)ethoxy)-7-fluoro-1H-indazol-3-yl)-1H-pyrazol-1-yl)ethyl)morph oline] |  | 592 | 1 to 10 | B (B represents 20 ≤ multiple X<50) | A (A represents 1 ≤ multiple X<20) | C (C represents 50 ≤ multiple X<100) | 10 to 100 |  |  |
| C[C@@H](Oc1ccc2[nH]nc(-c3cnn(C)c3)c2n1)c1c(Cl)cncc1Cl [Example 29, (R)-5-(1-(3,5-dichloropyridin-4-yl)ethoxy)-3-(1-methyl-1H-pyrazol-4-yl)-1H-pyrazolo[4,3-b]pyridine] |  | 38 | < 1 | A (A represents 1 ≤ multiple X<20) | A (A represents 1 ≤ multiple X<20) | A (A represents 1 ≤ multiple X<20) | 1 to 10 |  |  |
| C[C@@H](Oc1ccc2[nH]nc(-c3cnn(CCN4CCN(C)C(=O)C4)c3)c2n1)c1c(Cl)cncc1Cl [Example 54, (R)-4-(2-(4-(5-(1-(3,5-dichloropyridin-4-yl)ethoxy)-1H-pyrazolo[4,3-b]pyridin-3-yl)-1H-pyrazol-1-yl)ethyl)-1-methylpiperazin-2-one] |  | 177 | < 1 | A (A represents 1 ≤ multiple X<20) |  |  | 1 to 10 |  |  |
| C[C@@H](Oc1ccc2[nH]nc(-c3cnn(CCN4CCS(=O)(=O)CC4)c3)c2n1)c1c(Cl)cncc1Cl [Example 55, (R)-4-(2-(4-(5-(1-(3,5-dichloropyridin-4-yl)ethoxy)-1H-pyrazolo[4,3-b]pyridin-3-yl)-1H-pyrazol-1-yl)ethyl)thiomorph oline 1,1-dioxide] |  | 88.5 | < 1 | A (A represents 1 ≤ multiple X<20) |  |  | 10 to 100 |  |  |
| CC(Oc1ccc2[nH]nc(-c3cnn(C)c3)c2c1)c1cccc2ncccc12 (stereo not drawn) [Example 88, 5-(1-((3-(1-methyl-1H-pyrazol-4-yl)-1H-indazol-5-yl)oxy)ethyl)quin oline] |  | 3420 | 1 to 10 | A (A represents 1 ≤ multiple X<20) | A (A represents 1 ≤ multiple X<20) | C (C represents 50 ≤ multiple X<100) | 10 to 100 |  |  |
| CC(Oc1ccc2[nH]nc(-c3cnn(C)c3)c2c1)c1cccc2nccnc12 (stereo not drawn) [Example 92, 5-(1-((3-(1-methyl-1H-pyrazol-4-yl)-1H-indazol-5-yl)oxy)ethyl)quin oxaline] |  | 98.6 | < 1 | A (A represents 1 ≤ multiple X<20) | A (A represents 1 ≤ multiple X<20) | A (A represents 1 ≤ multiple X<20) | 1 to 10 |  |  |
| Cc1ccc2ncccc2c1C(C)Oc1ccc2[nH]nc(-c3cnn(C)c3)c2c1 (stereo not drawn) [Example 95, 6-methyl-5-(1-((3-(1-methyl-1H-pyrazol-4-yl)-1H-indazol-5-yl)oxy)ethyl)quinolinee] |  | 406 |  | C (C represents 50 ≤ multiple X<100) | A (A represents 1 ≤ multiple X<20) | C (C represents 50 ≤ multiple X<100) |  | 1 to 10 | 10 to 100 |
| CC(Oc1ccc2[nH]nc(-c3cnn(C)c3)c2c1)c1cccn2ncnc12 (stereo not drawn) [Example 101, 8-(1-((3-(1-methyl-1H-pyrazol-4-yl)-1H-indazol-5-yl)oxy)ethyl)-[1,2,4]triazolo[1,5-a]pyridine] |  | 246 | 1 to 10 | A (A represents 1 ≤ multiple X<20) |  |  | 10 to 100 |  |  |
| CC(Oc1ccc2[nH]nc(-c3cnn(C)c3)c2c1)c1c(C(F)F)ccc2ncccc12 (stereo not drawn) [Example 127, 6-(difluoromethyl)-5-(1-((3-(1-methyl-1H-pyrazol-4-yl)-1H-indazol-5-yl)oxy)ethyl)quinoline] |  | 941 | < 1 | C (C represents 50 ≤ multiple X<100) | A (A represents 1 ≤ multiple X<20) | C (C represents 50 ≤ multiple X<100) | > 100 |  |  |
| CC(Oc1ccc2[nH]nc(-c3cnn(C)c3)c2c1)c1c(CF)ccc2ncccc12 (stereo not drawn) [Example 130, 6-(fluoromethyl)-5-(1-((3-(1-methyl-1H-pyrazol-4-yl)-1H-indazol-5-yl)oxy)ethyl)q uinoline] |  | 1190 |  |  |  |  | 10 to 100 |  |  |
| CC(Oc1ccc2[nH]nc(-c3cnn(C)c3)c2c1)c1cc(Cl)cc2nccnc12 (stereo not drawn) [Example 136, 7-chloro-5-(1-((3-(1-methyl-1H-pyrazol-4-yl)-1H-indazol-5-yl)oxy)ethyl)qu inoxaline] |  | 377 | < 1 | B (B represents 20 ≤ multiple X<50) | A (A represents 1 ≤ multiple X<20) | C (C represents 50 ≤ multiple X<100) | 10 to 100 |  |  |
| Cc1cc2nccnc2c(C(C)Oc2ccc3[nH]nc(-c4cnn(C)c4)c3c2)n1 (stereo not drawn) [Example 183, 7-methyl-5-(1-((3-(1-methyl-1H-pyrazol-4-yl)-1H-indazol-5-yl)oxy)ethyl)pyridino [3,4-b]pyrazine] |  | 55.3 | < 1 | B (B represents 20 ≤ multiple X<50) | A (A represents 1 ≤ multiple X<20) | B (B represents 20 ≤ multiple X<50) | 10 to 100 |  |  |
| COCC(=O)N1CC(n2cc(-c3n[nH]c4ccc(OC(C)c5cccc6nccnc56)cc34)cn2)C1 (stereo not drawn) [Example 188, 2-methoxy-1-(3-(4-(5-(1-(quinoxalin-5-yl)ethoxy)-1H-indazol-3-yl)-1H-pyrazol-1-yl)azetidin-1-yl)ethan-1-one] |  | 277 | < 1 | B (B represents 20 ≤ multiple X<50) | A (A represents 1 ≤ multiple X<20) | B (B represents 20 ≤ multiple X<50) | 10 to 100 |  |  |
| CC(Oc1ccc2[nH]nc(-c3cnn(C4CN(C(=O)C(C)(C)O)C4)c3)c2c1)c1cccc2nccnc12 (stereo not drawn) [Example 190, 2-hydroxy-2-methyl-1-(3-(4-(5-(1-(quinoxalin-5-yl)ethoxy)-1H-indazol-3-yl)-1H-pyrazol-1-yl)azetidin-1-yl)propan-1-one] |  | 425 | < 1 | B (B represents 20 ≤ multiple X<50) | A (A represents 1 ≤ multiple X<20) | B (B represents 20 ≤ multiple X<50) | 10 to 100 |  |  |
